Assay results: patent US9156827B2, “Anticancer agent” (THE UNIVERSITY OF TOKYO, priority 2010, dated 2015)

Assays:
pim-1 kinase = pim-1 kinase (Homo sapiens, UniProt P11309); assay: Measurement of pim-1 kinase inhibitory activity (fluorescent substrate peptide, capillary electrophoresis); format: biochemical; conditions: 0.1 μM of each compound, 30 μM ATP, 1.5 μM substrate peptide, room temperature 2 hours
Protocol: Measurement of Pim-1 Kinase Inhibitory Activity
The result of the reaction was determined by quantifying the substrate and the phosphorylated reaction product separated by capillary electrophoresis based on difference in charges of the substances (EZ Reader II, Caliper Life Sciences, was used).

[1] = system: Human acute myeloid leukemia MV4-11 cells; assay: Cell proliferation-suppressing activity, chromogenic method (MTT assay); format: cell-based; conditions: 72 h, compound 1 μM, MTT assay three days after addition, Table 4
Protocol: (§1) Measurement of Cell Proliferation-Suppressing Activity (Chromogenic Method)
Human acute myeloid leukemia MV4-11 cells (10^4 cells) were inoculated on a 96-well microtiter plate, each compound was added at a final concentration of 1 μM 24 hours afterward, and MTT assay was performed three days after the addition of the compound to measure the cell proliferation-suppressing activity.

[2] = system: Human acute myeloid leukemia MV4-11 cells; assay: Cell proliferation-suppressing activity, chromogenic method (Cell Counting Kit-8); format: cell-based; conditions: compound 1 μM, 48 hours, Cell Counting Kit-8, absorbance 450 nm
Protocol: as §1
Human acute myeloid leukemia MV4-11 cells (2×10^4 cells) are inoculated on a 96-well microtiter plate. Each compound is added at a final concentration of 1 μM on the next day, and the cells are cultured for additional 48 hours. Absorbance is measured at 450 nm by using Cell Counting Kit-8 (Nacalai Tesque) to calculate the cell proliferation-suppressing activity.

Sequence of pim-1 kinase (P11309 whole entry): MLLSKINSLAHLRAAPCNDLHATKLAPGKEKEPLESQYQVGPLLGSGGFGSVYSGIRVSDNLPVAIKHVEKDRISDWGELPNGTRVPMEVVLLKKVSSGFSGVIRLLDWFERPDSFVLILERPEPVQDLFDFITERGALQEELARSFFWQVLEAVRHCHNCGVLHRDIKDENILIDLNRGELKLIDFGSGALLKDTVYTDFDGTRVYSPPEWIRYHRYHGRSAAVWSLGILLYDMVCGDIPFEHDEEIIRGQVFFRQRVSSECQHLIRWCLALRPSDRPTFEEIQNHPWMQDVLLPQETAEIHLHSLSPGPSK

SMILES	inhibition at 0.1 µM (pim-1 kinase; Table 2) [%]	inhibition at 1 µM [1] [%]	inhibition at 1 µM ([2]; Table 6) [%]	inhibition at 0.1 µM (pim-1 kinase; Table 1) [%]	inhibition at 1 µM ([2]; Table 7) [%]
O=C1/C(=C/c2n[nH]c3ccccc23)Oc2c1ccc(OCCc1ccccc1)c2CN1CCNCC1 [Compound B30, (Z)-2-[(1H-Indazol-3-yl)methylene]-6-phenethoxy-7-(piperazin-1-ylmethyl)benzofuran-3(2H)-one]	89	78	–	–	–
O=C1/C(=C/c2n[nH]c3ccccc23)Oc2c1ccc(OCCOc1ccccc1)c2CN1CCNCC1 [Compound B31, (Z)-2-((1H-Indazol-3-yl)methylene)-6-(2-phenoxyethoxy)-7-(piperazin-1-ylmethyl)benzofuran-3(2H)-one]	95	84	–	–	–
CCCOc1ccc2c(c1CN1CCNCC1)O/C(=C\c1n[nH]c3ccccc13)C2=O [Compound B23, (Z)-2-[(1H-Indazol-3-yl)methylene]-7-(piperazin-1-ylmethyl)-6-propoxybenzofuran-3(2H)-one]	93	90	–	–	–
CCCCOc1ccc2c(c1CN1CCNCC1)O/C(=C\c1n[nH]c3ccccc13)C2=O [Compound B24, (Z)-2-[(1H-Indazol-3-yl)methylene]-6-butoxy-7-(piperazin-1-ylmethyl)benzofuran-3(2H)-one]	88	89	–	–	–
O=C1/C(=C/c2c[nH]c3ccccc23)Oc2c1ccc(OCc1ccccc1)c2CN1CCNCC1 [Compound A61, (Z)-2-[(1H-Indol-3-yl)methylene]-6-(benzyloxy)-7-(piperazin-1-ylmethyl)benzofuran-3(2H)-one]	–	–	58	66	–
COc1ccc2c(c1C#CC1CCNCC1)O/C(=C\c1n[nH]c3ccccc13)C2=O [Compound B55, (Z)-2-[(1H-Indazol-3-yl)methylene]-6-methoxy-7-(piperidin-4-ylethynyl)benzofuran-3(2H)-one]	84	–	–	–	99
COc1ccc2c(c1C#CCCN1CCNCC1)O/C(=C\c1n[nH]c3ccccc13)C2=O [Compound B49, (Z)-2-[(1H-Indazol-3-yl)methylene]-6-methoxy-7-[4-(piperazin-1-yl)but-1-ynyl]benzofuran-3(2H)-one]	63	–	–	–	93
COc1ccc2c(c1CN1CCNCC1)O/C(=C\c1n[nH]c3ncccc13)C2=O [Compound B69, (Z)-2-[(1H-Pyrazolo[3,4-b]pyridin-3-yl)methylene]-6-methoxy-7-(piperazin-1-ylmethyl)benzofuran-3(2H)-one]	95	–	–	–	100
COc1ccc2c(c1CCC1CCNCC1)O/C(=C\c1n[nH]c3ccccc13)C2=O [Compound B57, (Z)-2-[(1H-Indazol-3-yl)methylene]-6-methoxy-7-[2-(piperidin-4-yl)ethyl]benzofuran-3(2H)-one]	89	–	–	–	99
COc1ccc2c(c1/C=C/C1CCNCC1)O/C(=C\c1n[nH]c3ccccc13)C2=O [Compound B64, (Z)-2-[(1H-Indazol-3-yl)methylene]-6-methoxy-7-[(E)-2-(piperidin-4-yl)vinyl]benzofuran-3(2H)-one]	81	–	–	–	93
COc1ccc2c(c1C#CCCC1CCNCC1)O/C(=C\c1n[nH]c3ccccc13)C2=O [Compound B61, (Z)-2-[(1H-Indazol-3-yl)methylene]-6-methoxy-7-[4-(piperidin-4-yl)but-1-ynyl]benzofuran-3(2H)-one]	70	–	–	–	97
COc1ccc2c(c1C1=CCNCC1)O/C(=C\c1n[nH]c3ccccc13)C2=O [Compound B52, (Z)-2-[(1H-Indazol-3-yl)methylene]-6-methoxy-7-(1,2,3,6-tetrahydropyridin-4-yl)benzofuran-3(2H)-one]	50	–	–	–	98
CCCOc1ccc2c(c1CN1CCNCC1)O/C(=C\c1c[nH]c3ccccc13)C2=O [Compound A60, (Z)-2-((1H-Indol-3-yl)methylene)-7-(piperazin-1-ylmethyl)-6-propoxybenzofuran-3(2H)-one]	–	–	91	84	–
CCOc1ccc2c(c1CN1CCNCC1)O/C(=C\c1c[nH]c3ccccc13)C2=O [Compound A59, (Z)-2-[(1H-Indol-3-yl)methylene]-6-ethoxy-7-(piperazin-1-ylmethyl)benzofuran-3(2H)-one]	–	–	95	92	–
COc1ccc2c(c1CCCC1CCNCC1)O/C(=C\c1n[nH]c3ccccc13)C2=O [Compound B60, (Z)-2-[(1H-Indazol-3-yl)methylene]-6-methoxy-7-[3-(piperidin-4-yl)propyl]benzofuran-3(2H)-one]	95	–	–	–	98
O=C1/C(=C/c2c[nH]c3ccccc23)Oc2c(CN3CCNCC3)cccc21 [Compound A56, (Z)-2-[(1H-indol-3-yl)methylene]-7-(piperazin-1-ylmethyl)benzofuran-3(2H)-one]	–	–	43	80	–
O=C1/C(=C/c2n[nH]c3ncccc23)Oc2c(CN3CCNCC3)cccc21 [Compound B70, (Z)-2-[(1H-Pyrazolo[3,4-b]pyridin-3-yl)methylene]-7-(piperazin-1-ylmethyl)benzofuran-3(2H)-one]	94	–	–	–	77
COc1ccc2c(c1Cc1c(C)n[nH]c1C)O/C(=C\c1n[nH]c3ccccc13)C2=O [Compound B73, (Z)-2-[(1H-Indazol-3-yl)methylene]-7-[(3,5-dimethyl-1H-pyrazol-4-yl)methyl]-6-methoxybenzofuran-3(2H)-one]	49	–	–	–	81
COc1ccc2c(c1C#CCN1CCNCC1)O/C(=C\c1n[nH]c3ccccc13)C2=O [Compound B46, (Z)-2-[(1H-Indazol-3-yl)methylene]-6-methoxy-7-[3-(piperazin-1-yl)prop-1-ynyl]benzofuran-3(2H)-one]	86	–	–	–	97
COc1ccc2c(c1/C=C\C1CCNCC1)O/C(=C\c1n[nH]c3ccccc13)C2=O [Compound B56, (Z)-2-[(1H-Indazol-3-yl)methylene]-6-methoxy-7-[(Z)-2-(piperidin-4-yl)vinyl]benzofuran-3(2H)-one]	95	–	–	–	99
COc1ccc2c(c1CCCCN1CCNCC1)O/C(=C\c1n[nH]c3ccccc13)C2=O [Compound B51, (Z)-2-[(1H-Indazol-3-yl)methylene]-6-methoxy-7-[4-(piperazin-1-yl)butyl]benzofuran-3(2H)-one]	86	–	–	–	94
COc1ccc2c(c1C1CCNCC1)O/C(=C\c1n[nH]c3ccccc13)C2=O [Compound B53, (Z)-2-[(1H-Indazol-3-yl)methylene]-6-methoxy-7-(piperidin-4-yl)benzofuran-3(2H)-one]	36	–	–	–	98
COc1ccc2c(c1CCC1CCNCC1)O/C(=C\c1n[nH]c3ncccc13)C2=O [Compound B72, (Z)-2-[(1H-Pyrazolo[3,4-b]pyridin-3-yl)methylene]-6-methoxy-7-[2-(piperidin-4-yl)ethyl]benzofuran-3(2H)-one]	97	–	–	–	93
COc1ccc2c(c1CCCN1CCNCC1)O/C(=C\c1n[nH]c3ccccc13)C2=O [Compound B48, (Z)-2-[(1H-Indazol-3-yl)methylene]-6-methoxy-7-[3-(piperazin-1-yl)propyl]benzofuran-3(2H)-one]	75	–	–	–	96
